Measured values from a compilation of properties of binary mixtures (doi:10.1016/j.molliq.2015.11.032).

Experiment: xn = mol fraction of the nth substance listed
Conditions: 101 kPa

viscosity (296.97 K, x2 = 0.75) [mPa·s]	viscosity (301.89 K, x2 = 0.75) [mPa·s]	viscosity (306.95 K, x2 = 0.75) [mPa·s]	viscosity (312 K, x2 = 0.75) [mPa·s]	viscosity (317.18 K, x2 = 0.75) [mPa·s]	viscosity (353.18 K, x2 = 0.75) [mPa·s]	viscosity (296.84 K, x2 = 0.9412) [mPa·s]	electrical conductivity (298.1 K, x2 = 0.9412) [S/m]	viscosity (301.89 K, x2 = 0.9412) [mPa·s]	viscosity (312.13 K, x2 = 0.9412) [mPa·s]	electrical conductivity (313.32 K, x2 = 0.9412) [S/m]	viscosity (317.31 K, x2 = 0.9412) [mPa·s]	electrical conductivity (328.03 K, x2 = 0.9412) [S/m]	viscosity (332.72 K, x2 = 0.9412) [mPa·s]	viscosity (353.18 K, x2 = 0.9412) [mPa·s]	SMILES
2771	1657	1002.8	612	382	59.5										C[P+](c1ccccc1)(c1ccccc1)c1ccccc1.[Br-] + OCC(O)CO
						1359.8	0.007	943	459	0.0174	306	0.0419	110.5	59.49	[Cl-].c1ccc(C[P+](c2ccccc2)(c2ccccc2)c2ccccc2)cc1 + OCC(O)CO
